From patent US10159684B2, “Pharmaceutical compositions for preventing glucocorticoid-induced corneal thinning” (INSERM (INSTITUT NATIONAL DE LA SANTE ET DE LA RECHERCHE …, priority 2013, dated 2018)

Key:
[1] = system: normal adult mice; experiment: Glucocorticoid-induced reduction of epidermal thickness in normal adult mice, topical application over the back pelage; format: in vivo; details: 7 days; for epidermal thickness, MR antagonist added to clobetasol: spironolactone 10 mM added to clobetasol 0.1 mM solution, FIG. 2
Procedure: In another set of experiments, we used normal adult mice that were treated by application of glucocorticoid (clobetasol, as 0.1 mM ethanol solution) alone or together with spironolactone (10 mM) over the back pelage, during 7 days.

[2] = system: mice with MR overexpression in keratinocytes; experiment: MR antagonist given during pregnancy to mice with MR overexpression in keratinocytes (K5-MR); format: in vivo; details: pregnant mice received the MR antagonist all along pregnancy; two litters
Description: To test whether the reduced epidermal thickness is related to excessive MR activation in this mouse model, we administered an antagonist of the mineralocorticoid receptor during pregnancy of the mice. […] The question arises to know which MR ligand activates the MR in this condition. Because of the absence of HSD2 (the enzyme that inactivates glucocorticoids) in the epidermis (Kenouch S, Lombes M, Delahaye F, Eugene E, Bonvalet J P, Farman N. Human skin as target for aldosterone: coexpression of mineralocorticoid receptors and 11 beta-hydroxysteroid dehydrogenase. J Clin Endocrinol Metab. 1994: 79(5): 1334-41), it is likely that MR bound ligand is endogenous corticosterone, rather than aldosterone.

[3] = system: human skin explants; experiment: Organotypic culture of human skin explants, epidermal thickness; format: cell-based; details: clobetasol 100 nM plus MR blocker 10 micromolar, 6 days, air/liquid interface; FIG. 3
Procedure: Human skin explants grown as organotypic culture represent a valuable model to study cx vivo epidermal homeostasis. Skin punches (3 mm) were made (accupunch) from human skin (discarded during mammary gland surgery) and placed in organotypic culture as explants (air/liquid interface) in 2 ml DMEM and 10% decomplemented charcoal-stripped foetal bovine scrum to remove steroids for 6 days, in the presence of clobetasol (100 nM) alone or together with spironolactone or canrenoate (potassium canrenoate) (10 micromolar) or solvent alone (0.1% ethanol).

| SMILES | epidermal thickness, glucocorticoid alone ([1]; clobetasol 0.1 mM ethanol solution, topical over back pelage) | epidermal thickness of double-transgenic pups (histology) [2] | skin appearance of double-transgenic pups [2] | thickness of the epidermis, MR blocker together with clobetasol [3] | epidermal thickness, MR antagonist added to clobetasol ([1]; topical) | epidermal thickness, MR antagonist added to clobetasol ([1]; topical, listed as Spironolactone) | epidermal thickness, MR antagonist alone ([1]; spironolactone alone, topical) |
| --- | --- | --- | --- | --- | --- | --- | --- |
| C[C@H]1C[C@H]2[C@@H]3CCC4=CC(=O)C=C[C@]4(C)[C@@]3(F)[C@@H](O)C[C@]2(C)[C@@]1(O)C(=O)CCl [Clobetasol, clobetasol] | drastic reduction of epidermal thickness | – | – | – | – | – | – |
| C[C@]12CCC(=O)C=C1C=C[C@@H]1[C@@H]2CC[C@@]2(C)[C@H]1CC[C@@]2(O)CCC(=O)O [Canrenoate, potassium canrenoate] | – | histologically normal epidermal thickness | normal skin appearance | increase the thickness of the epidermis | – | – | – |
| CC(=O)S[C@@H]1CC2=CC(=O)CC[C@]2(C)[C@H]2CC[C@@]3(C)[C@@H](CC[C@@]34CCC(=O)O4)[C@H]12 [spironolactone, 17-hydroxy-7α-mercapto-3-oxo-17α-pregn-4-ene-21-carboxylic acid γ-lactone acetate] | – | – | – | increase the thickness of the epidermis | reduction in epidermal thickness induced in mice by the glucocorticoid clobetasol was limited | significantly increased epidermal thickness | had no effect |
